Data set [1] can be described thus: In situ rat intestinal perfusion (site-specific absorption). The data set is classed as in vivo. The note with it: rat, in vivo, 50 μg/mL, pH 6.8. From the text: The rat intestine perfusion technique is a direct way to measure the regional absorption properties of a test compound in the gastrointestinal tract. Rat intestinal permeability coefficient (Peff) can be used to predict human in vivo oral absorption of passively absorbed compounds. Fagerholm, M. Johansson, and […], “Comparison between permeability coefficients in rat and human jejunum”, Pharm. […] Meanwhile, some other characteristics such as formulable Maximum Absorbable Dose (MAD), FDA Biopharmaceutical Classification, etc. can also be estimated. […] Rats used in this study were Charles River CD males, ranging in weight from approximately 300-350 grams. Metoprolol (a well-absorbed and passively transported compound) was used as a standard and tested simultaneously along with the ODV compounds. […] All chemicals were of analytical grade. After each experiment, all the analytic assays were performed promptly. For isotope determinations, 0.5 mL of perfusate sample containing ^14C PEG-4000 and ^3H-mannitol was mixed with 5 mL of scintillation cocktail. Radioactivity was counted in a liquid scintillation counter (Wallac 1409). Glucose concentration was determined by the glucose oxidase method (Biochemistry Analyzer). Metoprolol and the ODV compounds were analyzed by HPLC-UV/Vis (HP-1100 with a diode-array detector), using a YMC AQ 120 μ, 5 μ, 150×4.6 mm column and step gradient mobile phase containing water/0.1% TFA and acetonitrile. The ODV compounds and metoroplol were detected at 226 and 272 nm UV wavelength, respectively. Blank perfusate was assayed to evaluate the interference at these chromatographic conditions. The perfusions were performed in three intestinal sections of anesthetized rats: duodenum-jejunum, ileum, and colon. The lengths of the segments were approximately 10-12 cm for small intestine segments and 5-6 cm for colon segments. An inflow cannula was inserted at the proximal end and an outflow cannula was inserted at the distal end. Perfusate was pumped through the segment at 0.19 mL/min, and collected at 20, 40, 55, 70, 85 and 100 minutes. […] The disappearance rates of ODV compound, metoprolol, and glucose were determined from each collection interval by comparing to the initial compound solution remaining in the syringe at the end of the 100 minutes. This is to correct for any losses due to binding to the syringe or tubing. Meanwhile, drug concentration in perfusate samples were corrected for water influx/efflux, which was computed, based on ^14C-PEG-4000 concentration changes. […] Values below this range would indicate tissue damage that allows passage of PEG-4000 outside of the perfused segment, while values above this range would indicate significant water movement out of the segment. Water movement across the gut wall was determined by calculation of net water fluid: Net Water Flux (NWF)=[(1-[…] where PEGout and PEGin are the amount of radioactivity (dpm) of ^14C-PEG-4000 in inlet and outlet sides of the perfused intestinal segment, respectively; Q is the flow rate of perfusate; and L is the length of perfused segment (cm). The presence of the ODV compound in the perfusate was determined by HPLC. The amount of drug present at each time point was corrected for water movement across the wall of the intestine: Cout,[…]) where Cout is the concentration of drug in outlet perfusate; Cout,corr is the concentration of drug in outlet perfusate corrected for water moving in or out of the segment, as determined by the recovery of ^14C-PEG-4000. Effective intestinal permcability, Peff (cm/sec), was determined by the following equation: […] Cin is the concentration of drug in inlet perfusate; 2 μrL is the inner surface area of the perfused segment, with r assumed to be 0.18 cm in the rat (see G. Amidon, […]. Crison. “A theoretical basis for a biopharmaceutic drug classification: The correlation of in vitro drug product dissolution and in vivo bioavailability.” Pharm. Res. 12, 1995, 413-420) and L the length of the perfused segment (cm). […]

A short description of data set [2]: Bioavailability of O-desmethyl-venlafaxine in beagle dogs. The note with it: male, dog, plasma, free ODV levels, mean (% CV); for bioavailability: read-out: Absolute Bioavailability (%). The data set is classed as in vivo. How it is done:
Prior to administration, the oral solution (25 mg/mL) was diluted to a concentration of 7.5 mg/mL with water. […] Six male beagle dogs with body weights ranging between 10.2 and 16.0 kg were used in this study. The dogs were housed and given free access to water and food. The six dogs were dosed in a 4 period study. In Period 1, the dogs received 1 mL of the intravenous solution. In Period 2, the dogs received 10 mL of the oral solution. In Period 3, the dogs received the tablet. In Period 4, the dogs received the capsule. There was a one week wash out period between the first two treatment periods and a one month wash out period between treatment periods 2 and 3. Between periods 3 and 4, there was a one week wash out period. For periods 1 and 2, all dogs were fasted overnight with free access to water and fed after the four-hour bleeding. […] Plasma was separated in a refrigerated centrifuge and stored at -70° C. Plasma samples were then assayed. Plasma O-desmethyl-venlafaxine concentrations were determined by the HPLC method using mass spectrometric detection described in Hicks, […]., Russel, […] high-performance liquid chromatographic method for the simultaneous determination of venlafaxine and O-desmethylvenlafaxine in biological fluids”, Ther. Drug Monit. 16:100-107 (1994), which is hereby incorporated by reference. […] O-desmethyl-venlafaxine-glucuronide levels were determined by subtracting the O-desmethyl-venlafaxine (separate extraction procedure without the use of β-glucuronidase and analyzed by HPLC-MS) concentrations from the total O-desmethyl-venlafaxine concentrations. Noncompartmental pharmacokinetic parameters were calculated from the individual dog plasma O-desmethyl-venlafaxine and O-desmethyl-venlafaxine-glucuronide concentration-time profiles. Area under the plasma concentration-time curves (AUC0-μ) values were calculated by the addition of AUCLast (AUCLast=the linear trapezoid rule from time zero to the last measurable plasma concentration, […]) and […]/lambda. The values for lambda were determined from the long-linear portion of the terminal slope of the plasma O-desmethyl-venlafaxine and O-desmethyl-venlafaxine-glucuronide concentration-time profile after the intravenous dose. […] The peak plasma concentration (Cmax) and the time to reach Cmax (tmax) were noted directly from the plasma concentration-time profiles. Absolute bioavailability was determined by comparing the dose normalized AUC0-μvalues following the intravenous administration. All levels reported as below limit of quantitation (BLQ) were assigned a value of zero for calculation purposes.

Where [3] appears, read: po, 75 mg, Oral Solution (75 mg).

Like-named read-outs stand apart in the source and are kept apart here.

Consider `CN(C)CC(c1ccc(O)cc1)C1(O)CCCCC1.O=C(O)CCC(=O)O` (stereo not shown) [ODV succinate, O-desmethyl-venlafaxine succinate], for which, in data set [1] (male, Charles River CD), the “Peff as percentage of metoprolol's Peff value” is “about 10%” and the “Peff's ratio of duodenum-jejunum vs. ileum vs. colon” value was 1.00:1.90:0.07. Also, the “human in vivo Fa predicted” value in data set [1] is listed as 60-77%. The compound further had an AUC in data set [2] (iv, 25 mg, Intravenous Solution (25 mg)) of 746 ng·h/mL. In data set [2] (po, 75 mg, Capsule (75 mg)), the AUC was determined as 904 ng·h/mL, the highest concentration (Cmax) worked out at 465 ng/mL, the Tmax is 33 min and the bioavailability stood at 40%. In data set [2] (setting [3]), the AUC is 835 ng·h/mL, the Cmax was 450 ng/mL, the Tmax turned out to be 30 min and the bioavailability came to 37%. Moreover, in data set [2] (po, 75 mg, Tablet (75 mg)), the AUC is 677 ng·h/mL, the Cmax is 115 ng/mL, the Tmax was found to be 175 min and the bioavailability came out at 31%.

Usually AUC stands for the area under the concentration-time curve, a measure of exposure. Higher therefore signals more exposure. As a reminder, the Cmax is the highest concentration seen after dosing. For orientation: Tmax means the time from dosing to the highest level. The term bioavailability denotes dose-corrected exposure relative to a reference, in per cent.

The record behind these values is US7291347B2, “Succinate salt of O-desmethyl-venlafaxine” (Wyeth, priority 2001, dated 2007).
